Where a SMILES comes first, the peptide text is derived from it. Bridges are numbered along the chain shown (N, C = ends). The star is where a group is joined. DOTA = O=C(O)CN1CCN(CC(=O)O)CCN(CC(=O)*)CCN(CC(=O)O)CC1
Assays:
Format in all cases: ADME, organism-based, Neoplasm
[1] = Drug level in tumor of human MDA-MB-435 cell-xenograft athymic nude mouse model at 10 uM, iv by PET analysis; settings: athymic nude mouse (human MDA-MB-435 xenograft), in vivo
[2] = Drug level in tumor of human MDA-MB-435 cell-xenograft athymic nude mouse model at 10 uM, iv after 10 mins by optical imaging analysis; settings: in vivo
[3] = Drug level in tumor of human MDA-MB-435 cell-xenograft athymic nude mouse model at 10 uM, iv after 4 hrs by optical imaging analysis; settings: in vivo

| Drug uptake [1] | Drug uptake [2] | Drug uptake [3] | SMILES |
| --- | --- | --- | --- |
| Active | Active | Active | CC(=O)N[C@H](CSC1CC(=O)N(CCNC(=O)CCCCC[N+]2=C(/C=C/C3=C(Oc4ccc(S(=O)(=O)[O-])cc4)C(=C/C=C4/N(CCCCS(=O)(=O)[O-])c5ccc(S(=O)(=O)[O-])cc5C4(C)C)/CCC3)C(C)(C)c3cc(S(=O)(=O)[O-])ccc32)C1=O)C(=O)N[C@H]1CSSC[C@@H](C(N)=O)NC(=O)[C@H](CC(=O)O)NC(=O)[C@@H]2CCCN2C(=O)CNC(=O)[C@H](CCCCN)NC(=O)[C@H](CC(=O)O)NC(=O)CNC(=O)[C@H](CCCNC(=N)N)NC1=O.[Na+].[Na+].[Na+] (stereo not given in full) |
| Active | Active | Active | CC1(C)C(/C=C/C2=C(Oc3ccc(S(=O)(=O)[O-])cc3)C(=C/C=C3/N(CCCCS(=O)(=O)[O-])c4ccc(S(=O)(=O)[O-])cc4C3(C)C)/CCC2)=[N+](CCCCCC(=O)NCCN2C(=O)CC(SC[C@@H](NC(=O)CN3CCN(CC(=O)O)CCN(CC(=O)O)CCN(CC(=O)O)CC3)C(=O)N[C@H]3CSSC[C@@H](C(N)=O)NC(=O)[C@H](CC(=O)O)NC(=O)[C@@H]4CCCN4C(=O)CNC(=O)[C@H](CCCCN)NC(=O)[C@H](CC(=O)O)NC(=O)CNC(=O)[C@H](CCCNC(=N)N)NC3=O)C2=O)c2ccc(S(=O)(=O)[O-])cc21.[Na+].[Na+].[Na+] (stereo not given in full) |
| Active |  | Active | N=C(N)NCCC[C@@H]1NC(=O)[C@@H](NC(=O)[C@H](CS)NC(=O)CN2CCN(CC(=O)O)CCN(CC(=O)O)CCN(CC(=O)O)CC2)CSSC[C@@H](C(N)=O)NC(=O)[C@H](CC(=O)O)NC(=O)[C@@H]2CCCN2C(=O)CNC(=O)[C@H](CCCCN)NC(=O)[C@H](CC(=O)O)NC(=O)CNC1=O ({DOTA}-CCRGDKGPDC-NH2; disulfide 2-10) |
| Active |  | Active | CC(=O)N[C@@H](CS)C(=O)N[C@H]1CSSC[C@@H](C(N)=O)NC(=O)[C@H](CC(=O)O)NC(=O)[C@@H]2CCCN2C(=O)CNC(=O)[C@H](CCCCN)NC(=O)[C@H](CC(=O)O)NC(=O)CNC(=O)[C@H](CCCNC(=N)N)NC1=O (Ac-CCRGDKGPDC-NH2; disulfide 2-10) |
